Patent US20130197032A1, “[…] COMPOUNDS FOR THE TREATMENT OF NEUROLOGICAL AND […] DISORDERS” (A. CARLSSON RESEARCH AB, priority 2010, published 2013)

Columns and labels:
human D5 receptor = molecular target: T1, human D5 receptor (Homo sapiens, UniProt P21918); test: R-SAT assay D5; assay type: cell-based; conditions: Table 3, D5; percent response of reference SKF 38393
T1 construct: expressed in transfected cells; host or cells: NIH-3T3 (inferred: R-SAT host; D5 is in neither method list of b200)
T1 sequence (P21918 whole entry): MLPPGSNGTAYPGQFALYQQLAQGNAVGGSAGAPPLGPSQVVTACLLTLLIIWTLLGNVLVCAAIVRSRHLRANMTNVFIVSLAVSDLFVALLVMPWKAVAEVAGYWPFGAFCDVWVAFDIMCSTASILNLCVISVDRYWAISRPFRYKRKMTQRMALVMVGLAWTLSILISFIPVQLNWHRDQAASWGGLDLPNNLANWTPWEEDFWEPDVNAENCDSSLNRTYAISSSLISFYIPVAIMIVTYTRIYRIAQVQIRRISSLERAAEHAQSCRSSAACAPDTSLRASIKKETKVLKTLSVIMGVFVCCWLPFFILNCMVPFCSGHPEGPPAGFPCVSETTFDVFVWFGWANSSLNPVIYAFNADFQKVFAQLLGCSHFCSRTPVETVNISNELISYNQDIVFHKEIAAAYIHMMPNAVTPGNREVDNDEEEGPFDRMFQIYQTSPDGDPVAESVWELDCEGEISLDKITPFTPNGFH

[1] = molecular target: human D4 (variant 4.2) receptor (Homo sapiens, UniProt P21917, DEL265-296); assay type: cell-based
Chain of human D4 (variant 4.2) receptor (P21917 with tags, fused parts or gaps DEL265-296): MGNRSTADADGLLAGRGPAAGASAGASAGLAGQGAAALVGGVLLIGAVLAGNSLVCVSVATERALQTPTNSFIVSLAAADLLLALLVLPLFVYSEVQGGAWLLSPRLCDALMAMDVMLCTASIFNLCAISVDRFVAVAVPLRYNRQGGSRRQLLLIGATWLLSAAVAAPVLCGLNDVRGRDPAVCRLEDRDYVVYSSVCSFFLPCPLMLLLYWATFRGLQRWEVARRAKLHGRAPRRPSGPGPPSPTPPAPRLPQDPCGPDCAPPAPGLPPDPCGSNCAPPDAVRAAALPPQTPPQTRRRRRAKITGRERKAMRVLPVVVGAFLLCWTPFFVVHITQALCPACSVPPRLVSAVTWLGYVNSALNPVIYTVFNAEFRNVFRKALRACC

human 5-HT6 receptor = human 5-HT6 receptor (Homo sapiens, UniProt P50406); test: R-SAT assay 5-HT6; assay type: cell-based; conditions: Table 3, 5-HT6
Chain of human 5-HT6 receptor (P50406 whole entry): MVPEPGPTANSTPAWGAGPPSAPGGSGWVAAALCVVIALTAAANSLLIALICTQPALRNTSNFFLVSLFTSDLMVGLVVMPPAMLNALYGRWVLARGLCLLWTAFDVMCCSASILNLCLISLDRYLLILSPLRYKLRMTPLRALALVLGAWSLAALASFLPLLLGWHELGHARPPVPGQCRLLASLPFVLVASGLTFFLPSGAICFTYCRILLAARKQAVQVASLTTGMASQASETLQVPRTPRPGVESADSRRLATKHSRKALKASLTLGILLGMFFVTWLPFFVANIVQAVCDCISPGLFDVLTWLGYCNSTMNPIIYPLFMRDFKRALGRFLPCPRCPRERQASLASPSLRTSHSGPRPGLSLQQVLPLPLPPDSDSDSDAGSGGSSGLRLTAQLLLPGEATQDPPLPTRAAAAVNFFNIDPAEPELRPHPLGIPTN

5-HT2B receptors = 5-HT2B receptors (Homo sapiens, UniProt P41595); test: PI hydrolysis assay on 5-HT2B receptors
Chain of 5-HT2B receptors (P41595 whole entry): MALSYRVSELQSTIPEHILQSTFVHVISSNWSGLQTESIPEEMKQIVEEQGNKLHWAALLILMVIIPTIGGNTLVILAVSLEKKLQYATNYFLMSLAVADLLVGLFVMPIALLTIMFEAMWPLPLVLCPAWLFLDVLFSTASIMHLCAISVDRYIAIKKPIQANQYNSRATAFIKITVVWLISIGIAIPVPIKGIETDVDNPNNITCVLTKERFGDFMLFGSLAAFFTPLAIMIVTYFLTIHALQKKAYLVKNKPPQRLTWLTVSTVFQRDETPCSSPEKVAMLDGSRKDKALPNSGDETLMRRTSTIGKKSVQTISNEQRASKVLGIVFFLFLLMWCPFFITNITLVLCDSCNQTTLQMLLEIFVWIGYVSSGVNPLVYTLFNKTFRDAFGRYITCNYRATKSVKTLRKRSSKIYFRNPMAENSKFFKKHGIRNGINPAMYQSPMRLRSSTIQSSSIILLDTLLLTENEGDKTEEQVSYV
Method: After lysing the cells with 50 μl of 0.1M formic acid, 20 μl each cell lysate was mixed with 80 μl (1 mg) RNA Binding YSi-SPA beads (GE Healthcare, Chalfont St. Giles, UK) on PICO plates (PerkinElmer) and counted on a TopCount (Packard).

CCCN1CCC[C@@H](c2cccc(S(C)(=O)=O)c2)C1 [(−)-OSU6162, (3S)-3-[3-(methylsulfonyl)phenyl]-1-propylpiperidine]
Eff (%) (human D5 receptor): 10%
Eff (%) [1]: 40%
EC50 (human 5-HT6 receptor; negative logarithm of EC50 in molar, read-out: pEC50 (converted)): > 10000 nM
Eff (%) (human 5-HT6 receptor; percent response of reference 5-CT): 52%
EC50 (5-HT2B receptors): 631 nM
efficacy in PI hydrolysis assays on 5-HT2B receptors (5-HT2B receptors; data not shown): 24%
